Where only a bound is given, the exact number is not on record here.

The target in this test is T1, full-length human PKCι (Homo sapiens, UniProt P41743).
T1 construct: Recombinant, full-length human PKCι expressed in Sf21 insect cells is also commercially available; purchased; host or cells: Sf21 insect cells
T1 sequence (P41743 1-596): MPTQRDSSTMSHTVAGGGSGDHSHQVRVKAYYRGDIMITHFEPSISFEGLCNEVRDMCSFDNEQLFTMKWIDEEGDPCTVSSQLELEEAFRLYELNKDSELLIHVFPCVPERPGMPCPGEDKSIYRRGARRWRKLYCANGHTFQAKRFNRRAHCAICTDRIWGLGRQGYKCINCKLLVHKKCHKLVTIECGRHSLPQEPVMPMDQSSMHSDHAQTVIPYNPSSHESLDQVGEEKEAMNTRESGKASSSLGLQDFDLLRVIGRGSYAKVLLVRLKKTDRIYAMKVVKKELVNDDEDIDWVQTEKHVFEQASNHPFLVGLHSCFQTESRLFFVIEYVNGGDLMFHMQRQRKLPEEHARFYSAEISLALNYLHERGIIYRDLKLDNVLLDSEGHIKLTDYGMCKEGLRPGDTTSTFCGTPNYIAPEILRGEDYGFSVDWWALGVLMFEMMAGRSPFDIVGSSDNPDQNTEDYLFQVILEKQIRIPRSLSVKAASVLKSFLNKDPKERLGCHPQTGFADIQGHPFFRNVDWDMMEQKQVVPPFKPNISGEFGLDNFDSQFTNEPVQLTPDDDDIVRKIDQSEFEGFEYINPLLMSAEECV
In words: PKCι IC50 IMAP assay, full-length PKCι at 150 μM ATP. The test is classed as biochemical. As to conditions: read-out: IC50 in IMAP assay against full length PKCi at 150 μM ATP. In a few lines: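 IMAP fluorescence polarisation (ex 485/em 530 nm) read-out; % inhibition set from no-compound (0%) and no-enzyme (100%) controls, IC50 from dose-response curve fit. Sf21-expressed full-length enzyme ~15 pM, 100 nM FAM peptide, ATP 150 μM (5× KM^APP), 60 min at RT.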

As usually defined, the IC50 is the concentration needed to halve the response being measured. Regarding `COc1ccc(F)c(Nc2cc(-c3nc(N4CCNCC4)c4c(C5CC5)cncc4n3)ccn2)c1Cl` [Example 634, (2-Chloro-6-fluoro-3-methoxy-phenyl)-[4-(5-cyclopropyl-4-piperazin-1-yl-pyrido[3,4-d]pyrimidin-2-yl)-pyridin-2-yl]-amine], the IC50 was less than 100 nM.

For `c1cc(-c2nc(N3CCNCC3)c3c(C4CC4)cncc3n2)ccn1` [Example 139, 1-[5-cyclopropyl-2-(pyridin-4-yl)pyrido[3,4-d]pyrimidin-4-yl]piperazine], the IC50 is less than 100 nM.

Turning to `c1cc(-c2nc(N3CCNCC3)c3c(C4CC4)cncc3n2)c2cc[nH]c2n1` [Example 1209, 5-Cyclopropyl-4-piperazin-1-yl-2-(1H-pyrrolo[2,3-b]pyridin-4-yl)-pyrido[3,4-d]pyrimidine], the IC50 was less than 100 nM.

Turning to `COc1cncc2nc(-c3ccncc3)nc(N3CCC(N)(C(=O)Nc4ccccc4)C3)c12` (stereo not drawn) [Example 153, 3-Amino-1-(5-methoxy-2-pyridin-4-yl-pyrido[3,4-d]pyrimidin-4-yl)-pyrrolidine-3-carboxylic acid phenylamide], the IC50 lay within 1000 to 10000 nM.

With `CN1CCN(c2cccc(Nc3cc(-c4nc(N5CC(O)C5)c5c(C6CC6)cncc5n4)ccn3)c2)CC1` [Example 777, 1-(5-Cyclopropyl-2-{2-[3-(4-methyl-piperazin-1-yl)-phenylamino]-pyridin-4-yl}-pyrido[3,4-d]pyrimidin-4-yl)-azetidin-3-ol], the half-inhibitory concentration (IC50) is 100 to 1000 nM.

As for `CC(C)[C@H]1CN(c2nc(-c3ccncc3)nc3cnccc23)CCN1` [Example 62, (3S)-3-(propan-2-yl)-1-[2-(pyridin-4-yl)-pyrido[3,4-d]-pyrimidin-4-yl]-piperazine], the IC50 was in the range of 1000 to 10000 nM.

As for `COC(=O)[C@@H]1C[C@H](Nc2nc(-c3ccncc3)nc3cnccc23)CN1` [Example 39, methyl (2S,4S)-4-{[2-(pyridin-4-yl)pyrido[3,4-d]-pyrimidin-4-yl]-amino}pyrrolidine-2-carboxylate], the IC50 fell in the range of 10000 to 40000 nM.

Consider `COc1cncc2nc(-c3ccncc3)nc(N3CCN[C@H](Cc4ccccc4)C3)c12` [Example 37, (3R)-3-benzyl-1-[5-methoxy-2-(pyridin-4-yl)pyrido[3,4-d]pyrimidin-4-yl]piperazine], for which the half-maximal inhibitory concentration (IC50) was less than 100 nM.

On to `CNc1nc(-c2ccnc(Nc3ccc(OCCN4CCCC4)cc3)c2)nc2cncc(OC)c12` [Example 501, (5-Methoxy-2-{2-[4-(2-pyrrolidin-1-yl-ethoxy)-phenylamino]-pyridin-4-yl}-pyrido[3,4-d]pyrimidin-4-yl)-methyl-amine], for which the IC50 lay within 10000 to 40000 nM.

Take `N[C@H](CNc1nc(-c2ccncc2)nc2c(-c3ccc(Cl)cc3)nccc12)Cc1ccccc1` [Example 103, N-[(2S)-2-amino-3-phenylpropyl]-8-(4-chloro-phenyl)-2-(pyridin-4-yl)-pyrido[3,4-d]-pyrimidin-4-amine]: the 50% inhibitory concentration (IC50) is 100 to 1000 nM.

With `Cc1ccc(Nc2cc(-c3nc(N4CCNCC4)c4c(C5CC5)cncc4n3)ccn2)cn1` [Example 546, [4-(5-Cyclopropyl-4-piperazin-1-yl-pyrido[3,4-d]pyrimidin-2-yl)-pyridin-2-yl]-(6-methyl-pyridin-3-yl)-amine], the IC50 was less than 100 nM.

Consider `Cn1nccc1-c1nccc2c(NC[C@@H](N)Cc3ccccc3)nc(-c3ccncc3)nc12` [Example 104, N-[(2S)-2-amino-3-phenylpropyl]-8-(1-methyl-1H-pyrazol-5-yl)-2-(pyridin-4-yl)-pyrido[3,4-d]-pyrimidin-4-amine], for which the IC50 was in the range of 1000 to 10000 nM.

In the case of `Fc1cnc(Nc2cc(-c3nc(N4CC5CNCC5C4)c4c(C5CC5)cncc4n3)ccn2)c(F)c1` (stereo not drawn) [Example 2132, {4-[5-Cyclopropyl-4-(hexahydro-pyrrolo[3,4-c]pyrrol-2-yl)-pyrido[3,4-d]pyrimidin-2-yl]-pyridin-2-yl}-(3,5-difluoro-pyridin-2-yl)-amine], the half-inhibitory concentration (IC50) is less than 100 nM.

As to `Cc1ccc(C#N)cc1Nc1cc(-c2nc(N3CCNCC3)c3c(C4CC4)cncc3n2)ccn1` [Example 524, 3-[4-(5-Cyclopropyl-4-piperazin-1-yl-pyrido[3,4-d]pyrimidin-2-yl)-pyridin-2-ylamino]-4-methyl-benzonitrile], the IC50 is less than 100 nM.

As for `Fc1cc(F)c(Nc2cc(-c3nc(N4CCNCC4)c4c(C5CC5)cnc(C5CC5)c4n3)ccn2)nc1F` [Example 2187, [4-(5,8-Dicyclopropyl-4-piperazin-1-yl-pyrido[3,4-d]pyrimidin-2-yl)-pyridin-2-yl]-(3,5,6-trifluoro-pyridin-2-yl)-amine], the IC50 lay in the range of 100 to 1000 nM.

Take `N[C@H](CNc1nc(-c2ccncc2)nc2c(-c3ccc4occc4c3)nccc12)Cc1ccccc1` [Example 97, N-[(2S)-2-amino-3-phenylpropyl]-8-(1-benzofuran-5-yl)-2-(pyridin-4-yl)-pyrido[3,4-d]-pyrimidin-4-amine]: the half-inhibitory concentration (IC50) lay within 100 to 1000 nM.

For `Fc1cccc(F)c1Nc1cc(-c2nc(N3CCNCC3)c3c(C4CC4)cncc3n2)ccn1` [Example 264, [4-(5-Cyclopropyl-4-piperazin-1-yl-pyrido[3,4-d]pyrimidin-2-yl)-pyridin-2-yl]-(2,6-difluoro-phenyl)-amine], the half-inhibitory concentration (IC50) was less than 100 nM.

In the case of `FC(F)(F)c1cc2c(-c3nc(N4CCC4)c4c(C5CC5)cncc4n3)ccnc2[nH]1` [Example 1248, 4-Azetidin-1-yl-5-cyclopropyl-2-(2-trifluoromethyl-1H-pyrrolo[2,3-b]pyridin-4-yl)-pyrido[3,4-d]pyrimidine], the IC50 lay in the range of 10000 to 40000 nM.

For the compound `C[C@@H](Nc1cc(-c2nc(N3CCNCC3)c3c(C4CC4)cncc3n2)ccn1)c1ccc2ccccc2c1` [Example 2160, [4-(5-Cyclopropyl-4-piperazin-1-yl-pyrido[3,4-d]pyrimidin-2-yl)-pyridin-2-yl]-((R)-1-naphthalen-2-yl-ethyl)-amine], the IC50 is less than 100 nM.

Regarding `c1cc(-c2nc(N3CCNCC3)c3c(C4CC4)cncc3n2)cc(N[C@H]2CCOC2)n1` [Example 518, [4-(5-Cyclopropyl-4-piperazin-1-yl-pyrido[3,4-d]pyrimidin-2-yl)-pyridin-2-yl]-(S)-tetrahydro-furan-3-yl-amine], the 50% inhibitory concentration (IC50) was less than 100 nM.

On to `O=C(Nc1cc(-c2nc(N3CCNCC3)c3c(C4CC4)cncc3n2)ccn1)C1CC1` [Example 584, Cyclopropane-carboxylic acid [4-(5-cyclopropyl-4-piperazin-1-yl-pyrido[3,4-d]pyrimidin-2-yl)-pyridin-2-yl]-amide], for which the IC50 was less than 100 nM.

As for `Cc1ccnc(Nc2cc(-c3nc(N[C@@H]4CCNC4)c4ccncc4n3)ccn2)c1` [Example 338, {2-[2-(4-Methyl-pyridin-2-ylamino)-pyridin-4-yl]-pyrido[3,4-d]pyrimidin-4-yl}-(R)-pyrrolidin-3-yl-amine], the half-maximal inhibitory concentration (IC50) was in the range of 1000 to 10000 nM.

`CC(=O)Nc1cc(-c2nc(N3CCNCC3)c3c(Cl)cncc3n2)ccn1` [Example 251, N-[4-(5-Chloro-4-piperazin-1-yl-pyrido[3,4-d]pyrimidin-2-yl)-pyridin-2-yl]-acetamide]: the IC50 lay in the range of 100 to 1000 nM.

As to `O=C1CC(Nc2nc(-c3ccnc(Nc4c(F)cccc4F)c3)nc3cncc(C4CC4)c23)CCN1` (stereo not drawn) [Example 2076, 4-{5-Cyclopropyl-2-[2-(2,6-difluoro-phenylamino)-pyridin-4-yl]-pyrido[3,4-d]pyrimidin-4-ylamino}-piperidin-2-one], the half-maximal inhibitory concentration (IC50) lay in the range of 100 to 1000 nM.

Turning to `c1cc(-c2nc(N3CCNCC3)c3c(C4CC4)cncc3n2)cc(N[C@@H]2C[C@H]3CC[C@@H]2C3)n1` (racemic) [Example 695, (+/−)-(1RS,2RS,4SR)-Bicyclo[2.2.1]hept-2-yl-[4-(5-cyclopropyl-4-piperazin-1-yl-pyrido[3,4-d]pyrimidin-2-yl)-pyridin-2-yl]-amine], the IC50 is less than 100 nM.

For `Fc1cnc2[nH]ccc2c1-c1nc(N2CCNCC2)c2c(C3CC3)cncc2n1` [Example 1226, 5-Cyclopropyl-2-(5-fluoro-1H-pyrrolo[2,3-b]pyridin-4-yl)-4-piperazin-1-yl-pyrido[3,4-d]pyrimidine], the IC50 is less than 100 nM.

With `Fc1ccc(Nc2cc(-c3nc(N4CCNCC4)c4c(C5CC5)cncc4n3)ccn2)nn1` [Example 2191, [4-(5-Cyclopropyl-4-piperazin-1-yl-pyrido[3,4-d]pyrimidin-2-yl)-pyridin-2-yl]-(6-fluoro-pyridazin-3-yl)-amine], the IC50 was less than 100 nM.

For the compound `FC(F)(F)c1cc2c(-c3nc(N4CCNCC4)c4c(C5CC5)cncc4n3)ccnc2[nH]1` [Example 1212], the half-inhibitory concentration (IC50) was less than 100 nM.

For the compound `COc1cncc2nc(-c3ccnc(Nc4cc(F)c(F)cc4F)c3)nc(N3CCNCC3)c12` [Example 455, [4-(5-Methoxy-4-piperazin-1-yl-pyrido[3,4-d]pyrimidin-2-yl)-pyridin-2-yl]-(2,4,5-trifluoro-phenyl)-amine], the IC50 lay in the range of 100 to 1000 nM.

For the compound `CN1CCC(Nc2nc(-c3ccnc(Nc4c(F)cccc4F)c3)nc3cncc(C4CC4)c23)CC1` [Example 2084, {5-Cyclopropyl-2-[2-(2,6-difluoro-phenylamino)-pyridin-4-yl]-pyrido[3,4-d]pyrimidin-4-yl}-(1-methyl-piperidin-4-yl)-amine], the IC50 was less than 100 nM.
